Data published in patent US6110956A, “N-aryloxyethylamine derivatives for the treatment of depression” (American Home Products Corp., priority 1999, dated 2000).
Where two headings read alike, the source gives them in different places.

Key:
human 5-HT1A receptor = target: T1, human 5-HT1A receptor (Homo sapiens, UniProt P08908); test: 5-HT1A receptor binding ([3H]8-OH-DPAT, 5-HT1A.CHO cell membranes); conditions: for inhibition at 1 µM / inhibition at 0.01 µM: 0.5 h; for inhibition at 1 µM: read-out: 5-HT1A % @1000 nM; for inhibition at 0.01 µM: read-out: 5-HT1A % @10 nM
T1 construct: expressed in transfected cells
T1 sequence (P08908 1-422): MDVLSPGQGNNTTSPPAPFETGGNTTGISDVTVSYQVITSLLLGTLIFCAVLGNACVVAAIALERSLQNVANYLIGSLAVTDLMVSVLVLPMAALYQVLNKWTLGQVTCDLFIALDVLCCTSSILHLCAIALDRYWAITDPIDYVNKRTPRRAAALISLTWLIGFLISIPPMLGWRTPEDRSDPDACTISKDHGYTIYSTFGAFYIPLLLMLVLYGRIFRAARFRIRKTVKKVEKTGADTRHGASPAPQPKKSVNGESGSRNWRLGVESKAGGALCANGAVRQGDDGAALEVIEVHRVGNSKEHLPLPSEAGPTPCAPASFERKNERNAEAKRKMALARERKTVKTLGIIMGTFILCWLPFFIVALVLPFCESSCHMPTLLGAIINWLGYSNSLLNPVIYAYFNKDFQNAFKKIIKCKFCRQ
Method: (§1) The PCR cloning of the human 5-HT1A receptor subtype from a human genomic library has been described previously Chanda et al., Mol. Pharmacol., 43:516 (1993). A stable Chinese hamster ovary cell line expressing the human 5-HT1A receptor subtype (5-HT1A.CHO cells) was employed throughout this study. Cells were maintained in DMEM supplemented with 10% foetal calf serum, non-essential amino acids and penicillin/streptomycin.
Cells were grown to 95-100% confluency as a monolayer before membranes were harvested for binding studies. Cells were gently scraped from the culture plates, transferred to centrifuge tubes, and washed twice by centrifugation (2000 rpm for 10 min., 4° C.) in buffer (50 mM Tris; pH 7.5). The resulting pellets were aliquoted and placed at -80° C. On the day of assay, the cells were thawed on ice, and resuspended in buffer. Studies were conducted using [^3 H]8-OH-DPAT as the radioligand. The binding assay was performed in 96 well microtiter plates in a final total volume of 250 μL of buffer. Competition experiments were performed by using 7 concentrations of unlabelled drug and a final ligand concentration of 1.5 nM . Non-specific binding was determined in the presence of 10 μM 5HT. Saturation analysis was conducted by using [^3 H]8-OH-DPAT at concentrations ranging from 0.3-30 nM. Following a 30 minute incubation at room temperature, the reaction was terminated by the addition of ice cold buffer and rapid filtration using a M-96 Brandel Cell Harvester (Gaithersburg, Md.) through a GF/B filter presoaked for 30 minutes in 0.5% polyethyleneimine.

serotonin transporter = target: T2, serotonin transporter (Rattus norvegicus, UniProt P31652); test: serotonin transporter (ST) affinity, 3H-paroxetine binding in frontal cortical membranes; design: species or system male Sprague-Dawley rats
T2 construct: frontal cortical membranes prepared from male Sprague-Dawley rats; from tissue; host or cells: frontal cortical membranes of male Sprague-Dawley rats
T2 sequence (P31652 whole entry): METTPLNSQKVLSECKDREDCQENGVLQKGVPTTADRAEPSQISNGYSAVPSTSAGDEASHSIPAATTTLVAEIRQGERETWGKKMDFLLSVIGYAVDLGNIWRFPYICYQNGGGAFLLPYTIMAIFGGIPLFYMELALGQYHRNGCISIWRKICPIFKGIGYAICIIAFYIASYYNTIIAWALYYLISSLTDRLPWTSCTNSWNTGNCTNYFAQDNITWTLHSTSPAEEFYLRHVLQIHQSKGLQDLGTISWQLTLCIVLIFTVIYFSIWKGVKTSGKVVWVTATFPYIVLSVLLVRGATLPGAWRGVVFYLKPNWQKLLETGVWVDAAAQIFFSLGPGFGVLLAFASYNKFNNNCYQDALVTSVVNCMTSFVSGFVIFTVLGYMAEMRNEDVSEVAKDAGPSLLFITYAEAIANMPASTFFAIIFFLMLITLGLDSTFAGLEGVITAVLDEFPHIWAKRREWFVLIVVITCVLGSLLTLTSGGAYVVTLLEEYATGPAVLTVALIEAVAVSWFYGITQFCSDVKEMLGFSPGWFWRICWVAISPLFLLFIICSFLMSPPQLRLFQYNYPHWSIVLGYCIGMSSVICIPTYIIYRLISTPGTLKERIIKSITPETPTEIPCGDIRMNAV
Method: Briefly, frontal cortical membranes prepared from male Sprague-Dawley rats were incubated with ^3 H-paroxetine (0.1 nM) for 60 min at 25° C. All tubes also contained either vehicle, test compound (one to eight concentrations), or a saturating concentration of fluoxetine (10 μM) to define […]. All reactions are terminated by the addition of ice cold Tris buffer followed by rapid filtration using a Tom Tech filtration device to separate bound from free ^3 H-paroxetine.

5-HT1A cloned receptor = target: T3, 5-HT1A cloned receptor (Homo sapiens, UniProt P08908); test: [35S]-GTPγS binding assay, 5-HT1A cloned receptor membranes; assay type: biochemical; conditions: maximum agonist response defined by excess 8-OH-DPAT
T3 construct: expressed in transfected cells
T3 sequence (P08908 1-422): T1 sequence (P08908 1-422)
Excerpt: as §1
The [^35 S]-GTPγS binding assay was similar to that used by Lazareno and Birdsall, Br. J. Pharmacol. 109:1120 (1993). Briefly, 5-HT1A cloned receptor membrane fragments (as used for 5-HT1A receptor binding assays) were stored at -70° C. until needed. When needed, membranes were rapidly thawed, centrifuged at 40,000×g for 10 minutes and resuspended at 4° C. for 10 minutes in assay buffer ([…], 3 mM MgCl2, 100 mM NaCl, 1 mM EDTA, 10 uM GDP, […], pH 8.0). These membranes were then incubated for 30 min at 30° C. with [^35 S]GTPgS (1 nM) in the presence of vehicle, test compound (one to eight concentrations), or excess 8-OH-DPAT to define maximum agonist response. All reactions are terminated by the addition of ice cold Tris buffer followed by rapid filtration using a Tom Tech® filtration device to separate bound from free [^35 S]GTPgS. […] Bound radioactivity was counted and analyzed as above.

inhibition at 1 µM (human 5-HT1A receptor) [%]	inhibition at 0.01 µM (human 5-HT1A receptor) [%]	Compound	further results
49	–	N#Cc1ccc2[nH]cc([C@H]3CC[C@@H](NCCOc4cc(F)cc5c4OCC5)CC3)c2c1 [Example 6a]	–
–	16	COc1cc(F)ccc1OCCN[C@H]1CC[C@@H](c2c[nH]c3ccc(F)cc32)CC1 [Example 9a, [(1,4-cis)-4-(5-Fluoro-1H-indol-3-yl)-cyclohexyl]-[2-(4-fluoro-2-methoxy-phenoxy)-ethyl]-amine]	–
–	7	COc1ccccc1OCCNCC1CCC(c2c[nH]c3ccc(C#N)cc23)CC1 (centres unmarked) [Example 10b, 3-(4-{[2-(Methoxy-phenoxy)-ethylamino]-methyl}-cyclohexyl)-1H-indole-5-carbonitrile]	–
–	0	COc1cc(F)c(F)cc1OCCN[C@H]1CC[C@@H](c2c[nH]c3ccc(F)cc32)CC1 [Example 11a, (1,4-cis)-[2-(4,5-Difluoro-2-methoxy-phenoxy)-ethyl]-[4-(5-fluoro-1H-indol-3-yl)-cyclohexyl]-amine]	–

More lines, now with the values behind:

Compound	inhibition at 1 µM (human 5-HT1A receptor) [%]	inhibition at 0.01 µM (human 5-HT1A receptor) [%]	further results
Fc1cc2c(c(OCCN[C@H]3CC[C@@H](c4c[nH]c5ccc(F)cc54)CC3)c1)OCCC2 [Example 5a, [2-(6-Fluoro-chroman-8-yloxy)-ethyl]-[(1,4-cis)-4-(5-fluoro-1H-indol-3-yl)-cyclohexyl]-amine]	49	–	–
Cn1cc([C@H]2CC[C@@H](NCCOc3cc(F)cc4c3OCCC4)CC2)c2cc(C#N)ccc21 [Example 5c, 3-{(1,4-cis)-4-[2-(6-Fluoro-chroman-8-yloxy)-ethylamino]-cyclohexyl}-1-methyl-1H-indole-5-carbonitrile]	47	–	–
COc1ccccc1OCCNC[C@H]1CC[C@H](c2c[nH]c3ccc(F)cc32)CC1 [Example 10a, [(1,4-trans)-4-(5-Fluoro-1H-indol-3-yl)-cyclohexylmethyl]-[2-(2-methoxy-phenoxy)-ethyl]-amine]	–	–	Ki (human 5-HT1A receptor): 26.8 nM; Ki (serotonin transporter): 7.33 nM; Emax (5-HT1A cloned receptor): 60%
COc1cc(S(C)(=O)=O)c(F)cc1OCCN[C@H]1CC[C@H](c2c[nH]c3ccc(F)cc32)CC1 [Example 12, [(1,4-trans)-4-(5-Fluoro-1H-indol-3-yl)-cyclohexyl]-[2-(5-fluoro-4-methanesulfonyl-2-methoxy-phenoxy)-ethyl]-amine]	–	0	–
OC1(CNCCOc2cccc3[nH]ccc23)CCC(c2c[nH]c3ccc(F)cc23)CC1 (centres unmarked) [Example 13, (1,4)-4-(5-Fluoro-1H-indol-3-yl)-1-{[2-(1H-indol-4-yloxy)-ethylamino]-methyl}-cyclohexanol]	–	–	Ki (human 5-HT1A receptor; [3H]8-OH-DPAT 1.5 nM, 30 minutes, room temperature, read-out: 5-HT1A (Ki)): 257 nM
